Experimental findings from patent US20240317752A1, “6-SUBSTITUTED-9H-PURINE DERIVATIVES AND RELATED USES” (Black Diamond Therapeutics, Inc., priority 2021, published 2024) are described below.

T1 sequence (P15056 whole entry, change not shown, the tested form may be a part): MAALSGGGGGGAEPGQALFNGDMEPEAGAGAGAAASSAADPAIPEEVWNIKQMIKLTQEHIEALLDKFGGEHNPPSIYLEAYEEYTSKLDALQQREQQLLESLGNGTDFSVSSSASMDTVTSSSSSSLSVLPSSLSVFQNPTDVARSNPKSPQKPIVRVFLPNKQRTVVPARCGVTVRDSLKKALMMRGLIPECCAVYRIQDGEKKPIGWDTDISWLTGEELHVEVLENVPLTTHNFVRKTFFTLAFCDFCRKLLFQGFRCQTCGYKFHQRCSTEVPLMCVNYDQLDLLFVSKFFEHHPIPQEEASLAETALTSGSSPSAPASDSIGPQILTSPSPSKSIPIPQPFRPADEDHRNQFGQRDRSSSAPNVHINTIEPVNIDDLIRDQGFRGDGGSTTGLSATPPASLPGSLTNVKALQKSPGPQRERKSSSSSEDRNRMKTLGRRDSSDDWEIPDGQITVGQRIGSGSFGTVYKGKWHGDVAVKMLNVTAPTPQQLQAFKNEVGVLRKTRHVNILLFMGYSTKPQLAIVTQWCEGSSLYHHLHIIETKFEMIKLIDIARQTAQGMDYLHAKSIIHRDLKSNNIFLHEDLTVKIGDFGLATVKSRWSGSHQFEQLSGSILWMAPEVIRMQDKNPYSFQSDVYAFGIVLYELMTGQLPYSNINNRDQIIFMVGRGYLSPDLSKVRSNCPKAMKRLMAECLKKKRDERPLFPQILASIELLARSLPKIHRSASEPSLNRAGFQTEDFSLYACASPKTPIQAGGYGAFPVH

The test addresses T1, BaF3 BRAF-KIAA1549 fusion cells (Homo sapiens, UniProt P15056).
T1 construct: The BRAF-KIAA1549 fusion mutant was subcloned into pMXs-IRES-Blasticidin (RTV-016, Cell Biolabs, San Diego, CA); fused on or other part: Q9HCM3 (UPF0606 protein KIAA1549)
The experiment in a line: BaF3 BRAF-KIAA1549 fusion cell proliferation assay (CellTiterGlo). The class given is cell-based. To be noted: 96 hours incubation, potency code. The method, then: Retroviral Production: The BRAF-KIAA1549 fusion mutant was subcloned into pMXs-IRES-Blasticidin (RTV-016, Cell Biolabs, San Diego, CA). Retrovirus was produced by transfection of HEK 293T cells with the retroviral BRAF mutant expression vector pMXs-IRES-Blasticidin (RTV-016, Cell Biolabs), pCMV-Gag-Pol vector and pCMV-VSV-G-Envelope vector. Briefly, HEK 293T cells were plated in Poly-D-lysine coated 6-well plate (2.5×10^5 cells per well) and incubated overnight. The next day, retroviral plasmids (1 μg of BRAF-KIAA fusion mutant, 0.32 μg of pCMV-Gag-Pol and 0.165 μg pCMV-VSV-G) were mixed in 300 μL of Optimem (31985, Life Technologies). The mixture was incubated at room temperature for 5 minutes and then added to Optimem containing transfection reagent Lipofectamine (11668, Invitrogen) and incubated for 20 minutes. The mixture was then added dropwise to HEK 293T cells. The next day the medium was replaced with fresh culture medium and retrovirus was harvested at 24 hours.
Generation of BRAF-KIAA1549 fusion stable cell line: BaF3 cells were plated in V-bottom 96 well plate (COSTAR #3894) in 80 μL of RPMI/10% FBS and 0.01 ng/ml mouse IL-3; supplemented with 8 μg/mL polybrene (4×10^4 cells/well). Cells were transduced with 20 μL of BRAF-KIAA1549 fusion viral supernatant by centrifuging for 30 minutes at 1000 rpm. Cells were placed in a 37° C. incubator overnight. Next day 100 μL of RPMI/10% FBS and 0.01 ng/ml mouse IL-3 was added. After 24 hours, 100 μL of cells were transferred to a 24 well plate containing 900 μL of RPMI/10% FBS and 15 μg/mL Blasticidin. Contents of the 24 well plate were sampled for cell viability via CellTiterGlo (Promega) over a 2-week period.
Assay for cell proliferation: BaF3 BRAF-KIAA1549 fusion cells were resuspended at 1.5×10^5c/mL in RPMI containing 10% Heat Inactivated FBS, 1% L-glutamine and dispensed in duplicate ([…]) into 384 well plates. To determine the effect of compound on cell proliferation, BaF3 BRAF-KIAA1549 fusion cells were incubated for 96 hours in the presence of vehicle control (DMSO) or compound at varying concentrations. Inhibition of cell growth was determined by luminescent quantification (Envision by Perkin Elmer) of intracellular ATP content using CellTiterGlo (Promega), according to the protocol provided by the manufacturer. To determine the IC50 values, the vehicle-treated cells were normalized as viable cells and analyzed using the CDD Vault, Collaborative Drug Discovery, Burlingame, CA (the Levenberg-Marquardt algorithm; Levenberg, K., […]; Marquardt, D., 1963).
Tables A1 and A2 assign each compound a code for potency in the BaF3 BRAF-KIAA1549 fusion cell proliferation assay: A, B, C, or D. According to the code, A represents an IC50 value <20 nM; B represents an IC50 value ≥20 nM and <100 nM; C represents an IC50 value ≥100 nM and <500 nM; and D represents an IC50 value ≥500 nM.
A general note: ATP-based viability assays read luminescence as a measure of living cells.
In turn, `C#Cc1ccc(C(=O)Nc2ccc(C)c(Nc3ncccc3-c3ncnc4[nH]cnc34)c2)cc1` [Compound I-31, N-(3-((3-(9H-purin-6-yl)pyridin-2-yl)amino)-4-methylphenyl)-4-ethynylbenzamide] showed a GI50 below 20 nM.
To `Cc1ccc(NC(=O)c2cc(C3CC3)ccn2)cc1Nc1ncccc1-c1ncnc2[nH]cnc12` [Compound I-55, N-(3-(3-(9H-purin-6-yl)pyridin-2-ylamino)-4-methylphenyl)-4-cyclopropylpicolinamide] belongs below 20 nM.
To `Cc1ccc(NC(=O)CN2CCCC(C(F)(F)F)C2)cc1Nc1ncccc1-c1ncnc2[nH]cnc12` (centres unmarked) [Compound I-77, N-(3-((3-(9H-purin-6-yl)pyridin-2-yl)amino)-4-methylphenyl)-2-(3-(trifluoromethyl)piperidin-1-yl)acetamide] belongs below 20 nM; to `Cc1ccc(NC(=O)CC2CCCC(C(F)(F)F)C2)cc1Nc1ncccc1-c1ncnc2[nH]cnc12` (centres unmarked) [Compound I-47, N-(3-((3-(9H-purin-6-yl)pyridin-2-yl)amino)-4-methylphenyl)-2-(3-(trifluoromethyl)cyclohexyl)acetamide], below 20 nM.
To `COc1cnc(C(=O)Nc2ccc(C)c(Nc3ncccc3-c3ncnc4[nH]cnc34)c2)cc1C(F)(F)F` [IA-100, N-(3-(3-(9H-purin-6-yl)pyridin-2-ylamino)-4-methylphenyl)-5-methoxy-4-(trifluoromethyl)picolinamide] belongs 20 to 100 nM.
Compound `Cc1ccc(NC(=O)c2cc(C(F)(F)F)ccn2)cc1Nc1nccc(C)c1-c1ncnc2[nH]cnc12` [IA-152] yielded a GI50 of at least 500 nM.
For `Cc1ccc(NC(=O)C[C@@H]2CCN[C@@H](C(F)(F)F)C2)cc1Nc1ncccc1-c1ncnc2[nH]cnc12` (single isomer, unassigned) [IA-144], the GI50 fell in the range of 100 to 500 nM.
As for `Cc1ccc(NC(=O)CN2CCC[C@H](C(F)(F)F)C2)cc1Nc1ncccc1-c1ncnc2[nH]cnc12` [IA-103, (S)—N-(3-(3-(9H-purin-6-yl)pyridin-2-ylamino)-4-methylphenyl)-2-(3-(trifluoromethyl)piperidin-1-yl)acetamide], the GI50 is below 20 nM.
Next, `Cc1ccc(C(=O)Nc2ccc(C)c(Nc3ncccc3-c3ncnc4[nH]cnc34)c2)cc1` [Compound I-27, N-(3-((3-(9H-purin-6-yl)pyridin-2-yl)amino)-4-methylphenyl)-4-methylbenzamide]: 20 to 100 nM.
As for `Cc1ccc(NC(=O)C[C@@H]2CCO[C@H](C(F)(F)F)C2)cc1Nc1ncccc1-c1ncnc2[nH]cnc12` (single isomer, unassigned) [IA-149], the GI50 was 20 to 100 nM.
`Cc1ccc(NC(=O)c2ccnc(C3CC3)c2)cc1Nc1ncccc1-c1ncnc2[nH]cnc12` [Compound I-19, N-(3-((3-(9H-purin-6-yl)pyridin-2-yl)amino)-4-methylphenyl)-2-cyclopropylisonicotinamide]: the GI50 is below 20 nM.
Compound `O=C(Nc1ccc(F)c(Nc2ncccc2-c2ncnc3[nH]cnc23)c1)c1cc(C(F)(F)F)ccn1` [Compound I-20] registered a concentration for 50% growth inhibition (GI50) of 20 to 100 nM.
To `Cc1ccc(NC(=O)CC2CCCCCC2)cc1Nc1ncccc1-c1ncnc2[nH]cnc12` [IA-113, N-(3-((3-(9H-purin-6-yl)pyridin-2-yl)amino)-4-methylphenyl)-2-cycloheptylacetamide] belongs below 20 nM; to `Cc1ncc(C(=O)Nc2cccc(C(F)(F)F)c2)cc1Nc1ncccc1-c1ncnc2[nH]cnc12` [Compound I-52, 5-((3-(9H-purin-6-yl)pyridin-2-yl)amino)-6-methyl-N-(3-(trifluoromethyl)phenyl)nicotinamide], 20 to 100 nM.
In the case of `Cc1ccc(NC(=O)C[C@H]2CCN[C@H](C(F)(F)F)C2)cc1Nc1ncccc1-c1ncnc2[nH]cnc12` (single isomer, unassigned) [IA-143], the concentration for 50% growth inhibition (GI50) is 100 to 500 nM.
With `O=C(Nc1ccc(Cl)c(Nc2ncccc2-c2ncnc3[nH]cnc23)c1)c1cc(C(F)(F)F)ccn1` [Compound I-21, N-(3-(3-(9H-purin-6-yl)pyridin-2-ylamino)-4-chlorophenyl)-4-(trifluoromethyl)picolinamide], the GI50 fell in the range of 20 to 100 nM.
As for `Cc1ccc(NC(=O)CC2CCC(F)(F)CC2)cc1Nc1ncccc1-c1ncnc2[nH]cnc12` [Compound I-14, N-(3-(3-(9H-purin-6-yl)pyridin-2-ylamino)-4-methylphenyl)-2-(4,4-difluorocyclohexyl)acetamide], the concentration for 50% growth inhibition (GI50) is below 20 nM.
As for `Cc1ccc(NC(=O)CN2CCCN(C)CC2)cc1Nc1ncccc1-c1ncnc2[nH]cnc12` [IA-135, N-(3-((3-(9H-purin-6-yl)pyridin-2-yl)amino)-4-methylphenyl)-2-(4-methyl-1,4-diazepan-1-yl)acetamide], the GI50 was at least 500 nM.
Next, `Cc1ccc(NC(=O)c2cc(C(F)(F)F)c(OC3COC3)cn2)cc1Nc1ncccc1-c1ncnc2[nH]cnc12` [IA-95, N-(3-(3-(9H-purin-6-yl)pyridin-2-ylamino)-4-methylphenyl)-5-(oxetan-3-yloxy)-4-(trifluoromethyl)picolinamide]: below 20 nM; `Cc1ccc(NC(=O)c2ccc(C#N)cc2)cc1Nc1ncccc1-c1ncnc2[nH]cnc12` [Compound I-26, N-(3-((3-(9H-purin-6-yl)pyridin-2-yl)amino)-4-methylphenyl)-4-cyanobenzamide]: 100 to 500 nM; `Cc1ccc(NC(=O)c2ccc(C(F)(F)F)c(Cl)c2)cc1Nc1ncccc1-c1ncnc2[nH]cnc12` [Compound I-33, N-(3-((3-(9H-purin-6-yl)pyridin-2-yl)amino)-4-methylphenyl)-3-chloro-4-(trifluoromethyl)benzamide]: 20 to 100 nM.
Consider `C#Cc1cc(C(=O)Nc2ccc(C)c(Nc3ncccc3-c3ncnc4[nH]cnc34)c2)ccc1Cl` [Compound I-36, N-(3-((3-(9H-purin-6-yl)pyridin-2-yl)amino)-4-methylphenyl)-4-chloro-3-ethynylbenzamide], for which the GI50 was below 20 nM.
To `Cc1ccc(NC(=O)CC2CC(C(F)(F)F)CCO2)cc1Nc1ncccc1-c1ncnc2[nH]cnc12` (centres unmarked) [IA-105, N-(3-((3-(9H-purin-6-yl)pyridin-2-yl)amino)-4-methylphenyl)-2-(4-(trifluoromethyl)tetrahydro-2H-pyran-2-yl)acetamide] belongs 20 to 100 nM; to `Cc1ccc(NC(=O)C[C@H]2CCC[C@@H](C(F)(F)F)C2)cc1Nc1ncccc1-c1ncnc2[nH]cnc12` (single isomer, unassigned) [IA-137], below 20 nM.
Next, `Cc1ccc(NC(=O)c2cnc(C(F)(F)F)c(C#N)c2)cc1Nc1ncccc1-c1ncnc2[nH]cnc12` [Compound I-70, N-(3-((3-(9H-purin-6-yl)pyridin-2-yl)amino)-4-methylphenyl)-5-cyano-6-(trifluoromethyl)nicotinamide]: 20 to 100 nM; `Cc1cc(C)c(Nc2ncccc2-c2ncnc3[nH]cnc23)cc1NC(=O)c1cc(C(F)(F)F)ccn1` [IA-119, N-(5-((3-(9H-purin-6-yl)pyridin-2-yl)amino)-2,4-dimethylphenyl)-4-(trifluoromethyl)picolinamide]: 100 to 500 nM.
To `Cc1ccc(NC(=O)c2cc(C3CC3)c(Cl)cn2)cc1Nc1ncccc1-c1ncnc2[nH]cnc12` [Compound I-56, N-(3-((3-(9H-purin-6-yl)pyridin-2-yl)amino)-4-methylphenyl)-5-chloro-4-cyclopropylpicolinamide] belongs at least 500 nM; to `Cc1ccc(NC(=O)c2cc(C(F)(F)F)ccn2)cc1Nc1nnccc1-c1ncnc2[nH]cnc12` [IA-121, N-(3-((4-(9H-purin-6-yl)pyridazin-3-yl)amino)-4-methylphenyl)-4-(trifluoromethyl)picolinamide], at least 500 nM; to `Cc1ncc(NC(=O)c2ccnc(C(F)(F)F)c2)cc1Nc1ncccc1-c1ncnc2[nH]cnc12` [Compound I-17, N-(5-(3-(9H-purin-6-yl)pyridin-2-ylamino)-6-methylpyridin-3-yl)-2-(trifluoromethyl)isonicotinamide], 20 to 100 nM.

Usually GI50 stands for the concentration that inhibits growth by half. Read a high GI50 as less potent growth inhibition.
